One assay relates to ß-Catenin. Put plainly: Immunoblot of non-phosphorylation-ß-Catenin in HeLa cells. In kind it is cell-based, human. The note with it: 1 h, BMP2 (100ng/mL), already from 0.1µM. The procedure: Western blot:: Cell extracts were homogenized in Urea-Lysis buffer (1mM EDTA,0.5% Triton X-100), 5mM NaF, 6M Urea, 1mM Na3VO4, 10µg/mL Pepstatin, 100µM PMSF and 3µg/mL Aprotinin in PBS). Enhanced chemiluminescence (ECL) Western blot analysis was performed. 20-40µg of total protein was resolved on 10% SDS-PAGE gels and immunoblotted with specific antibodies. Primary antibodies were incubated at a 1:1,000 dilution in TBS (pH 7.5) with 0.1% Tween-20 and 5% BSA/nonfat milk with gentle agitation overnight at 4°C. The proper secondary antibodies were incubated in TBS (pH 7.5) with 5% BSA/nonfat milk and 0.1 % Tween-20 at a 1:5,000 dilution for 1 h at room temperature.
To assess the effect of E738 on Wnt and Stat3 pathway in mammalian cellular context, HeLa cells were treated with E738 at increasing concentrations for 1 h. Here E804 was used as reference because of its well-known inhibition of Stat3 and Wnt. The antibodies of p-Stat3 and non-phosphorylation-ß-Catenin (NP-ß-Catenin, Ser33/37/Thr41), which can provide a convenient positive band if GSK3B is inhibited, were recruited to substantiated our in vitro results. […] With the stimulation of FCS, we also observed the similar regulation on Stat3 and MAPKs pathways depicted in Fig. 8.
A general note: A western blot detects proteins with antibodies after separation by electrophoresis.

The subject of a further assay is Parp. Description: Parp cleavage by immunoblot. To be noted: E738 (1µM), FCS 10% or BMP2 (100ng/mL). In kind it is cell-based. The procedure:
The Figures show: • Figure 1: IRDs impacted on the activation of BMP-associated Smad1/5/8 in HeLa and HFF. Phosphorylation of Smad1 (Ser463/465)/5 (Ser463/465)/8 (Ser426/428) and pan Smad1/5/8 were detected by immunoblot after 24h treatment with IRDs as indicated at 1µM or 5µM a) in HeLa with the stimuli of BMP2 (100ng/mL), b) FCS 10%, c) in HFF with the stimuli of BMP2 (100ng/mL) or d) FCS 10%. […] Data were normalized to the value of non-treated cells, show the mean ± SD of quadruplicates and are representative of three independent experiments. […] Total lysates were analyzed by immunoblot using proper antibodies. b) Cell extracts of BMP-treated HeLa cells with or without compounds were subject to immunoblot using p- and pan-Smad1/5/8 antibodies. c) HeLa cells were incubated with or without E738 (1µM) after a 1 h pulse of BMP2, d) or with DM (1µM) and E738 (1µM) for the indicated periods. • Figure 4: R-Smad regulated by E738 in time- and dose-response studies. HeLa cells were treated with BMP2 (100ng/mL) in the presence or absence of E738 (1µM) in a time course study as indicated and analyzed, a) by immunoblot using antibodies against p-Smad1/5/8 at C tail, p-Smad1/5/8 at S206), Smad1/5/8, p-Erk1/2, p-JNK and p-P38 or b) qRT-PCR using primers of ID1 and ID2. […] The expression of Smad1, Smad2, Smad4, Smurf1 and Smurf2 were analyzed by qRT- PCR. […]

Each structure is given as a SMILES string.

On to `COc1ccc2c(c1)C(=C1Nc3ccccc3C1=NOCC(O)CO)C(=O)N2` (centres unmarked) [E738], for which, in the assay with ß-Catenin, the “non-phosphorylation-ß-Catenin (NP-ß-Catenin, Ser33/37/Thr41)” value was “highly stabilized ß-Catenin”. The Parp cleavage entry in the assay on Parp is reported as “induced Parp cleavage”.

The values are drawn from patent EP2518139A1, “Use of indirubin derivatives for producing pluripotent stem cells” (Universitätsklinikum Jena, priority 2011, dated 2012).
